Assays:
[1] = system: younger postmenopausal women; conditions: 10 000 U vitamin D3/wk added to calcium 1000 mg/d, postmenopausal women (age: 56 y); Cooper et al. 2003; cited from earlier work
[2] = vitamin D3 added to estrogen therapy; Tuppurainen et al. 1998; cited from earlier work
[3] = system: post-menopausal women; conditions: administered for one year to post-menopausal women; Morabito et al. 2002; cited from earlier work
[4] = system: ovariectomized rats; assay: Genistein dose-ranging preclinical study: serum markers of bone resorption and formation; format: in vivo, Sprague-Dawley rats
Experimental: (§1) This study was carried out to evaluate the effects of different human dose equivalents of genistein (aglycone) alone, or in combination with supplemental calcium carbonate and vitamin D3, on bone density, markers, and histology in ovariectomized rats. Forty-eight three month old ovariectomized (OVX) female Sprague-Dawley rats were purchased from Charles River Laboratories. Animals were maintained in plastic cages under standard environmental conditions with water and standard rat chow available ad libitum at the Animal Facility of the Department of Clinical and Experimental Medicine and Pharmacology of the University of Messina, Messina, Italy. After 1 week of acclimation, animals were randomly assigned to 12 different treatment groups that lasted for 6 weeks as summarized in Table 1 below:
(§2) Genistein doses were converted into human equivalents by using the following formula: (human dose in mg/m^2)=(kin)×(dose in mg/kg) where human m^2 for a person of 60 kg (considered as a medium weight for our cohort of post-menopausal women) is 1.62 and km is the conversion factor (for a rat of 250 gr is 7.0) {Freireich, 1966 4611/id. Genistein was diluted in a 1:1 solution of 0.9% NaCl and DMSO and administered by intraperitoneal injection. Animals received 50% supplementation of their normal daily intake of calcium and vitamin D3 (50.4 IU/kg/day) by oral gavage, which equated to 366.52 mg/kg/day of calcium and 50.4 IU/kg/day of vitamin D3.
(§3) Bone mineral density of the right femur was measured using dual-energy X-ray absorptiometry. The coefficient of variation for femur BMD was 1.16%. Animals were maintained under controlled conditions for 6 weeks, at the end of the experiments were sacrificed under general anaesthesia (with chloral hydrate 400 mg/kg/ip) after blood collection by cardiac puncture. Blood was centrifuged and serum stored immediately at −20° C. for analysis. Serum was used to quantify markers of bone resorption [soluble receptor activator of nuclear factor kappaB ligand (sRANKL) and C-terminal telopeptide (CTX)] and formation [bone-specific alkaline phosphatase and osteoprotegerin (OPG)].

[5] = system: ovariectomized rats; assay: Genistein dose-ranging preclinical study: bone mineral density of the right femur by dual-energy X-ray absorptiometry; format: in vivo, Sprague-Dawley rats
Experimental: as §1, §2, §3

[6] = system: ovariectomized (OVX) female Sprague-Dawley rats; assay: Genistein bone architecture study: femoral head histology; format: in vivo; conditions: human equivalent dose of 54 mg/day (4.76 mg/kg/day i.p.), photomicrographs, preliminary evidence, to approximately that of non-ovariectomized animal
Description: Three month old ovariectomized (OVX) female Sprague-Dawley rats were purchased from Charles River Laboratories. Animals were maintained in plastic cages under standard environmental conditions with water and standard rat chow available ad libitum at the Animal Facility of the Department of Clinical and Experimental Medicine and Pharmacology of the University of Messina, Messina, Italy.
Dose Calculation—Genistein doses were converted into animal equivalents by using the following formula: (human dose in mg/m^2)=(km)×(dose in mg/kg) where human m^2 for a person of 60 kg (considered as a medium weight for our cohort of post-menopausal women) is 1.62 and km is the conversion factor (for a rat of 250 gr is 7.0) {Freireich, 1966 4611/id}. Therefore, animals given the human equivalent of 54 mg/day were administered 4.76 mg/kg/day. Genistein was diluted in a 1:1 solution of 0.9% NaCl and DMSO and administered by intraperitoneal injection in a volume of […].
Histology—Rat femora decalcified in 4% EDTA for approximately 1 week and then processed for routine paraffin embedding following standard procedures. Sections were cut at the femoral head just proximal to the coxofemoral joint and stained with hematoxylin and eosin.

[7] = Ensrud et al., J Bone Miner Res. 2004; cited from earlier work
[8] = serum, OVX rats, genistein 0-1000 mg/day human dose equivalents i.p., 6 weeks, p<0.001, FIG. 1

C=C1CC[C@H](O)C/C1=C/C=C1\CCC[C@]2(C)[C@@H]([C@H](C)CCCC(C)C)CC[C@@H]12 [vitamin D3]
bone mineral density beyond calcium supplementation alone [1]: did not confer benefits
lumbar or femoral bone mineral density changes [2]: no statistically significant improvement

O=c1c(-c2ccc(O)cc2)coc2cc(O)cc(O)c12 [genistein, 4′,5,7-trihydroxyisoflavone]
bone mineral density [3]: improve
several biochemical markers of bone health [3]: improve
RANKL/OPG ratio ([4]; OVX rats, genistein i.p., 6 weeks, p<0.001, FIG. 3): decreased
dose at which the genistein effect reached a plateau ([4]; bone markers, BMD and RANKL/OPG ratio, no further significant improvement beyond this dose by post-hoc testing): 54 mg human dose equivalent
Bone specific alkaline phosphatase (marker of bone formation) [4, 8]: dose-dependently increased
CTX (marker of bone resorption) [4, 8]: decreased
osteoprotegerin (marker of bone formation) [4, 8]: dose-dependently increased
sRANKL (marker of bone resorption) [4, 8]: decreased
BMD when supplemented with vitamin D3 and calcium ([5]; equivalent of 54 mg genistein per day, only group showing it): statistically significant preservation
bone mineral density ([5]; femur, OVX rats, genistein i.p., 6 weeks, p<0.001, FIG. 2): increases
BMD when supplemented with vitamin D3 or calcium ([5]; genistein 27, 200, 500 and 1,000 mg human equivalent doses, even worsened in some instances): no improvement
BMD over 6 weeks in calcium and vitamin D3-replete rats ([5]; genistein at 54 mg/day and above (human dose equivalents)): significant increases
trabecular architecture (trabecular rod number and thickness) of femoral head [6]: restores trabecular architecture

NCCCC(O)(P(=O)(O)O)P(=O)(O)O [alendronate]
reducing fractures beyond 5 years of treatment [7]: no benefit

— patent US9486438B2, “Combination dosage forms and therapies for supporting bone health” (Primus Pharmaceuticals Inc., priority 2008, dated 2016)
